This test deals with T1, human NEP (Homo sapiens, UniProt P08473).
T1 construct: purchased R&D Systems, Minneapolis, Minn; 1182-ZN
As to the kind of experiment: In vitro enzyme inhibition assay at human NEP (fluorogenic peptide substrate). To be noted: recombinant human NEP, substrate Mca-D-Arg-Arg-Leu-Dap-(Dnp)-OH 10 μM, 37° C., values given as ranges; for Ki: read-out: pKi values at human NEP (converted). It is filed as biochemical. The procedure, abridged:
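Recombinant human NEP pre-incubated 30 min at 37 °C with compound (10 μM to 20 pM), then 10 μM Mca-D-Arg-Arg-Leu-Dap-(Dnp)-OH in 50 mM HEPES pH 7.5, 100 mM NaCl, 0.01% Tween-20, 10 μM ZnSO4. Stopped after 20 min with acetic acid, fluorescence read at 320/405 nm; Ki from nonlinear fit, reported as pKi.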

Results on 23 compounds are retold here after patent publication US8993752B2, “Neprilysin inhibitors” (Theravance Biopharma R&D IP, LLC, priority 2011, dated 2015).

Where only a bound is given, the exact number is not on record here.

T1 sequence (P08473 whole entry): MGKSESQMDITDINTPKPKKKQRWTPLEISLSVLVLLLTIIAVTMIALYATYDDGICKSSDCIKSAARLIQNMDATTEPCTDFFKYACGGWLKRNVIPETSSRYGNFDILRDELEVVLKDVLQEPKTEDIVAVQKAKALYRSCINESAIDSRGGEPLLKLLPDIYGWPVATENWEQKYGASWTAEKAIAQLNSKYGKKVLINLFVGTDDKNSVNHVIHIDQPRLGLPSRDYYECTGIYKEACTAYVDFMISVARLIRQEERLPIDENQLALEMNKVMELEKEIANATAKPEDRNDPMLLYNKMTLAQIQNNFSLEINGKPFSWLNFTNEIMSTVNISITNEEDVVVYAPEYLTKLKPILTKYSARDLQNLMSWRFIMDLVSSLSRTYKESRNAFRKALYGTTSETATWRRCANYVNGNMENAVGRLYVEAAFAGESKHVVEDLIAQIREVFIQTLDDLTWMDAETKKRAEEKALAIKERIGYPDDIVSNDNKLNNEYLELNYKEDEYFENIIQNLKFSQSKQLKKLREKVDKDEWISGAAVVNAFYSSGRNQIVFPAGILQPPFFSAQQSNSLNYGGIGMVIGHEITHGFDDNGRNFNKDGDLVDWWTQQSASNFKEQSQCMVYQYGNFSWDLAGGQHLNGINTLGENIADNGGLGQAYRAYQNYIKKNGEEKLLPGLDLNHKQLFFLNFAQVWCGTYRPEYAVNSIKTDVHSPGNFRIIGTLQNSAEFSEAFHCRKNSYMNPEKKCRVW

On to `CC(C)CN(C)C(=O)c1cc(C(=O)N[C@H](Cc2ccccc2C(F)(F)F)[C@@H](O)C(=O)O)n[nH]1` [Example 6-3, (2R,3R)-2-Hydroxy-3-{[5-(isobutyl-methyl-carbamoyl)-1H-pyrazole-3-carbonyl]-amino}-4-(2-trifluoromethyl-phenyl)-butyric acid], for which the Ki was 12.6 to 100 nM.

Regarding `CCCCCCn1nc(C(=O)N[C@@H](CC(=O)O)Cc2ccccc2Cl)cc1C(=O)O` [Example 11-8, 5-[(R)-2-Carboxy-1-(2-chloro-benzyl)-ethylcarbamoyl]-2-hexyl-2H-pyrazole-3-carboxylic acid], the Ki is 12.6 to 100 nM.

Regarding `CCOc1ncc(Cn2nc(C(=O)N[C@H](Cc3ccccc3)[C@@H](O)C(=O)O)cc2C2CC2)cn1` [Example 8-24, (2R,3R)-3-{[5-Cyclopropyl-1-(2-ethoxy-pyrimidin-5-ylmethyl)-1H-pyrazole-3-carbonyl]-amino}-2-hydroxy-4-phenyl-butyric acid], the Ki is 12.6 to 100 nM.

In the case of `CC(Cn1nc(C(=O)N[C@@H](CC(=O)O)Cc2ccccc2Cl)cc1C(=O)O)C(=O)O` (stereo partly drawn) [Example 11-10, 5-[(R)-2-Carboxy-1-(2-chloro-benzyl)-ethylcarbamoyl]-2-(2-carboxy-propyl)-2H-pyrazole-3-carboxylic acid], the Ki was 12.6 to 100 nM.

For the compound `O=C(N[C@H](Cc1ccccc1Cl)[C@@H](O)C(=O)O)c1cc(C(=O)O)n(Cc2ccc(Br)cc2)n1` [Example 2-41, 2-(4-Bromo-benzyl)-5-[(1R,2R)-2-carboxy-1-(2-chloro-benzyl)-2-hydroxy-ethylcarbamoyl]-2H-pyrazole-3-carboxylic acid], the Ki is at most 1 nM.

For the compound `CCn1nc(C(=O)N[C@H](Cc2ccccc2)[C@@H](O)C(=O)O)cc1C(=O)O` [Example 8-12, 5-((1R,2R)-1-Benzyl-2-carboxy-2-hydroxy-ethylcarbamoyl)-2-ethyl-2H-pyrazole-3-carboxylic acid], the Ki is 12.6 to 100 nM.

Turning to `Cc1ccc(Cn2nc(C(=O)N[C@H](Cc3ccccc3Cl)[C@@H](O)C(=O)O)cc2C(=O)O)cc1` [Example 2-40, 5-[(1R,2R)-2-Carboxy-1-(2-chloro-benzyl)-2-hydroxy-ethylcarbamoyl]-2-(4-methyl-benzyl)-2H-pyrazole-3-carboxylic acid], the Ki was 1.26 to 10 nM.

Turning to `COc1c(F)c(F)c(Cn2nc(C(=O)N[C@H](Cc3ccccc3Cl)[C@@H](O)C(=O)O)cc2C(C)=O)c(F)c1F` [Example 2-71, (2R,3R)-3-{[5-Acetyl-1-(2,3,5,6-tetrafluoro-4-methoxy-benzyl)-1H-pyrazole-3-carbonyl]-amino}-4-(2-chloro-phenyl)-2-hydroxy-butyric acid], the Ki was at most 1 nM.

On to `CC(=O)c1cc(C(=O)N[C@H](Cc2ccccc2Cl)[C@@H](O)C(=O)O)[nH]n1` [Example 3-5, (2R,3R)-3-[(5-Acetyl-2H-pyrazole-3-carbonyl)-amino]-4-(2-chloro-phenyl)-2-hydroxy-butyric acid], for which the Ki was 12.6 to 100 nM.

On to `O=C(N[C@H](Cc1ccccc1Cl)[C@@H](O)C(=O)O)c1cc(C(=O)O)n(Cc2c(F)cccc2F)n1` [Example 2-44, 5-[(1R,2R)-2-Carboxy-1-(2-chloro-benzyl)-2-hydroxy-ethylcarbamoyl]-2-(2,6-difluoro-benzyl)-2H-pyrazole-3-carboxylic acid], for which the Ki was 1.26 to 10 nM.

As to `COc1c(F)c(F)c(Cn2nc(C(C)=O)cc2C(=O)N[C@H](Cc2ccccc2Cl)[C@@H](O)C(=O)O)c(F)c1F` [Example 3-6, (2R,3R)-3-{[5-Acetyl-2-(2,3,5,6-tetrafluoro-4-methoxy-benzyl)-2H-pyrazole-3-carbonyl]-amino}-4-(2-chloro-phenyl)-2-hydroxy-butyric acid], the Ki is at most 1 nM.

Take `O=C(N[C@H](Cc1ccccc1Cl)[C@@H](O)C(=O)O)c1cc(-c2ccccc2Cl)n(-c2ccc(Cl)cc2Cl)n1` [Example 2-64, (2R,3R)-4-(2-Chloro-phenyl)-3-{[5-(2-chloro-phenyl)-1-(2,4-dichloro-phenyl)-1H-pyrazole-3-carbonyl]-amino}-2-hydroxy-butyric acid]: the Ki is 12.6 to 100 nM.

With `CN(C)C(=O)c1cc(C(=O)N[C@H](Cc2ccccc2C(F)(F)F)[C@@H](O)C(=O)O)n[nH]1` [Example 6-7, (2R,3R)-3-[(5-Dimethylcarbamoyl-1H-pyrazole-3-carbonyl)-amino]-2-hydroxy-4-(2-trifluoromethyl-phenyl)-butyric acid], the Ki is 1.26 to 10 nM.

With `O=C(N[C@H](Cc1ccccc1)[C@@H](O)C(=O)O)c1cc(C(=O)O)n(Cc2ccc(Cl)cc2F)n1` [Example 8-1, 5-((1R,2R)-1-Benzyl-2-carboxy-2-hydroxy-ethylcarbamoyl)-2-(4-chloro-2-fluoro-benzyl)-2H-pyrazole-3-carboxylic acid], the Ki was 1.26 to 10 nM.

Turning to `Cc1ccccc1C[C@H](CC(=O)O)NC(=O)c1cc(C(=O)O)[nH]n1` [Example 13, 5-((R)-1-Carboxymethyl-2-o-tolyl-ethylcarbamoyl)-2H-pyrazole-3-carboxylic Acid], the Ki was 12.6 to 100 nM.

As for `O=C(O)Cn1nc(C(=O)N[C@H](Cc2ccccc2Cl)[C@@H](O)C(=O)O)cc1-c1ccc(Cl)cc1Cl` [Example 2-74, (2R,3R)-3-{[1-Carboxymethyl-5-(2,4-dichlorophenyl)-1H-pyrazole-3-carbonyl]-amino}-4-(2-chloro-phenyl)-2-hydroxy-butyric acid], the Ki is 12.6 to 100 nM.

As to `O=C(N[C@H](Cc1ccccc1)[C@@H](O)C(=O)O)c1cc(C(=O)O)n(Cc2ccc(F)cc2)n1` [Example 8-9, 5-((1R,2R)-1-Benzyl-2-carboxy-2-hydroxy-ethylcarbamoyl)-2-(4-fluoro-benzyl)-2H-pyrazole-3-carboxylic acid], the Ki was 1.26 to 10 nM.

`CN(C)C(=O)c1cc(C(=O)N[C@H](Cc2ccccc2Cl)[C@@H](O)C(=O)O)n[nH]1` [Example 2-54]: the “pKi values at human NEP” value was 8.0-8.9.

Take `O=C(O)C[C@@H](Cc1ccccc1Cl)NC(=O)c1cc(C(=O)O)n(Cc2cccc(Cl)c2)n1` [Example 10, 5-[(R)-2-Carboxy-1-(2-chlorobenzyl)-ethylcarbamoyl]-2-(3-chlorobenzyl)-2H-pyrazole-3-carboxylic Acid]: the Ki is 1.26 to 10 nM.

Turning to `O=C(N[C@H](Cc1ccccc1)[C@@H](O)C(=O)O)c1cnn(-c2ccccn2)c1` [Example 9-1, (2R,3R)-2-Hydroxy-4-phenyl-3-[(1-pyridin-2-yl-1H-pyrazole-4-carbonyl)-amino]-butyric acid], the Ki was 12.6 to 100 nM.

As to `COc1ccc(Cn2ccc(C(=O)N[C@H](Cc3ccccc3Cl)[C@@H](O)C(=O)O)n2)c(F)c1` [Example 2-66, (2R,3R)-4-(2-Chloro-phenyl)-3-{[1-(2-fluoro-4-methoxy-benzyl)-1H-pyrazole-3-carbonyl]-amino}-2-hydroxy-butyric acid], the Ki is 1.26 to 10 nM.

Turning to `O=C(O)C[C@@H](Cc1ccccc1Cl)NC(=O)c1cc(C(=O)O)n(CC(=O)O)n1` [Example 11-9, 5-[(R)-2-Carboxy-1-(2-chloro-benzyl)-ethylcarbamoyl]-2-carboxymethyl-2H-pyrazole-3-carboxylic acid], the Ki was 12.6 to 100 nM.

For `O=C(N[C@H](Cc1ccccc1Cl)[C@@H](O)C(=O)O)c1cc(-c2ccc(-c3ccccc3)cc2)[nH]n1` [Example 2-49, (2R,3R)-3-[(5-Biphenyl-4-yl-1H-pyrazole-3-carbonyl)-amino]-4-(2-chloro-phenyl)-2-hydroxy-butyric acid], the Ki is 12.6 to 100 nM.
